According to patent US20030083376A1, “Depot preparations” (priority 2001, published 2003):

What was measured:
Assay type in all cases: physicochemical
[1] = Storage stability in powder laundry detergent; conditions: after one month
Excerpt: (§1) The separate samples are then divided into portions.

[2] = Storage stability in soap; conditions: stored in the dark for about one month at room temperature
Excerpt: as §1
The soap formulation below can be prepared in accordance with generally known methods. The data refer to percentages by weight.
The soap formulations A and B were stored in the dark for about one month at room temperature.

[3] = Hydrolysis rate in 1% strength aqueous soap solution, SPME headspace analysis
Method: To determine the hydrolysis rate, the depot preparation was added to a 1% strength aqueous soap solution, and the concentration of the depot preparation or of the free aldehyde was measured by SPME headspace analysis.

Row | SMILES | storage stability [1] [%] | Storage stability [%] [2] [%] | storage stability relative to the corresponding aldehyde [2] | time to complete hydrolysis [3] [min]
1 | CCCCCCC=O [Aldehyde C7, n-Heptanal] | 27 | 27 | – | –
2 | CCCCCCC(OCCc1ccccc1)OC(C)=O (centres unmarked) [Example 5, 1-(2-Phenylethoxy)heptyl Acetate] | 93 | 93 | significantly greater storage stability | ≤ 5
3 | OCCc1ccccc1 [Phenylethyl alcohol, 2-Phenylethanol] | 91 | 91 | – | –
